Experimental data published in the supplement of paper PMC13380429.
Counter-ions that a name gives are not always drawn.

Key:
Details in all cases: 72 h
Calu-3 [1] = experiment: drug sensitivity score (DSS) for viability; higher = more toxic; extreme values may be limits of the assay
HepG2 [2] = experiment: as above
U2OS [3] = experiment: as above
Vero E6 [4] = experiment: as above
Caco-2 [5] = experiment: as above
Calu-3 [6] = experiment: cell viability relative to DMSO; higher = less toxic
HepG2 [7] = experiment: as above
U2OS [8] = experiment: as above
Vero E6 [9] = experiment: as above
Caco-2 [10] = experiment: as above
Calu-3 [11] = experiment: relative viability EC50 (midpoint between 100% and the lowest measured viability); higher = less toxic
HepG2 [12] = experiment: as above
U2OS [13] = experiment: as above
Vero E6 [14] = experiment: as above
Caco-2 [15] = experiment: as above

Compound	drug sensitivity score (Calu-3 [1])	drug sensitivity score (HepG2 [2])	drug sensitivity score (U2OS [3])	drug sensitivity score (Vero E6 [4])	drug sensitivity score (Caco-2 [5])	cell viability (Calu-3 [6]; 1 nM)	cell viability (Calu-3 [6]; 10 nM)	cell viability (Calu-3 [6]; 100 nM)	cell viability (Calu-3 [6]; 1000 nM)	cell viability (Calu-3 [6]; 10000 nM)	cell viability (HepG2 [7]; 1 nM)	cell viability (HepG2 [7]; 10 nM)	cell viability (HepG2 [7]; 100 nM)	cell viability (HepG2 [7]; 1000 nM)	cell viability (HepG2 [7]; 10000 nM)	cell viability (U2OS [8]; 1 nM)	cell viability (U2OS [8]; 10 nM)	cell viability (U2OS [8]; 100 nM)	cell viability (U2OS [8]; 1000 nM)	cell viability (U2OS [8]; 10000 nM)	cell viability (Vero E6 [9]; 1 nM)	cell viability (Vero E6 [9]; 10 nM)	cell viability (Vero E6 [9]; 100 nM)	cell viability (Vero E6 [9]; 1000 nM)	cell viability (Vero E6 [9]; 10000 nM)	cell viability (Caco-2 [10]; 1 nM)	cell viability (Caco-2 [10]; 10 nM)	cell viability (Caco-2 [10]; 100 nM)	cell viability (Caco-2 [10]; 1000 nM)	cell viability (Caco-2 [10]; 10000 nM)	relative viability EC50 (Calu-3 [11])	relative viability EC50 (HepG2 [12])	relative viability EC50 (U2OS [13])	relative viability EC50 (Vero E6 [14])	relative viability EC50 (Caco-2 [15])
N=C(C[C@@H](O)COc1ccccc1-c1ccccc1)N1CCCCC1	0.2	0	0	0	0	100%	98.2%	90.1%	104%	83.6%	92.8%	94.5%	109%	84.4%	101%	99.9%	103%	96.8%	102%	92.8%	97.5%	102%	96.6%	96.8%	102%	95.7%	100%	81.8%	96.6%	89.5%	> 10 µM	> 10 µM	> 10 µM	> 10 µM	> 10 µM
O=C1C=CC[C@@H]2[C@H]3CCCN4CCC[C@@H](CN12)[C@@H]34 [sophocarpine]	0	0	0	0	0	98.8%	103%	103%	98%	102%	92.1%	99.1%	80.5%	91.2%	89.4%	97.3%	96.4%	100%	98.5%	106%	97.8%	113%	106%	109%	100%	93.8%	95.9%	110%	97%	90.3%	> 10 µM	> 10 µM	> 10 µM	> 10 µM	> 10 µM
CCn1c(N)c(C(=O)NC)c(=O)c2ccc(C#C[C@@](C)(O)COC)nc21	0	0	0	0	0	89.4%	100%	103%	98.3%	109%	92.6%	102%	93.2%	105%	104%	102%	96.9%	98.3%	97.8%	97.4%	94.1%	98.6%	94.8%	99.1%	104%	105%	92.8%	104%	94.2%	92.5%	> 10 µM	> 10 µM	> 10 µM	> 10 µM	> 10 µM
c1ccc(OCc2ccc(CCCN3CCOCC3)cc2)cc1 [fomocaine]	0	0	0	0	0	110%	101%	108%	96.3%	113%	96.7%	106%	97.1%	101%	90.4%	93.7%	94.6%	98.5%	100%	101%	94.9%	95.7%	93.1%	100%	100%	87.8%	92.8%	100%	93.4%	97.1%	> 10 µM	> 10 µM	> 10 µM	> 10 µM	> 10 µM
CN1[C@@H]2CC[C@H]1C[C@@H](OC(=O)N1Cc3ccccc3NC1=O)C2 [DAU-5884]	0	0	0	0	0	96.5%	105%	98.1%	99.3%	94.4%	105%	93.3%	94.5%	110%	97.3%	97.2%	102%	94.4%	100%	100%	101%	94.6%	97.9%	96.8%	91.3%	93.3%	91.7%	89.5%	97.3%	92.7%	> 10 µM	> 10 µM	> 10 µM	> 10 µM	> 10 µM
CCN(Cc1ccncc1)C(=O)C(CO)c1ccccc1 (stereo not given) [tropicamide]	0	0	0	0	0	98.6%	90.5%	101%	95.9%	103%	106%	98%	107%	91.9%	97.8%	91.7%	98.8%	95.4%	99%	103%	94.2%	88.8%	91.8%	84.8%	102%	86.2%	96.9%	97.2%	89.4%	101%	> 10 µM	> 10 µM	> 10 µM	> 10 µM	> 10 µM
O=C(O)c1cccnc1Nc1cccc(C(F)(F)F)c1 [niflumic-acid]	0	0	0	0	0	100%	90.9%	98.7%	99.7%	95.2%	103%	101%	99.6%	97.2%	104%	99.7%	98%	104%	106%	102%	100%	96%	97.4%	97.3%	101%	108%	98.5%	98.4%	96.2%	100%	> 10 µM	> 10 µM	> 10 µM	> 10 µM	> 10 µM
c1ccc2c(c1)CCCc1cc(NCCN3CCOCC3)nnc1-2	0	0	0	0	0	99.7%	105%	96.1%	113%	94.9%	101%	101%	94.4%	87.7%	101%	97.1%	99.7%	92.9%	98.1%	96.6%	104%	98.9%	108%	104%	99%	97.7%	99.2%	96.1%	105%	87.7%	> 10 µM	> 10 µM	> 10 µM	> 10 µM	> 10 µM
CC(C)SC(=N)N [S-isopropylisothiourea]	0.5	0	0	0	0	100%	99.5%	102%	97.1%	84.8%	101%	109%	103%	94.5%	108%	96.9%	98.2%	96.3%	103%	102%	103%	99.2%	99.5%	89.9%	97.2%	99%	95%	96.7%	105%	91.9%	> 10 µM	> 10 µM	> 10 µM	> 10 µM	> 10 µM
CCN(CC)CCNc1ccc(CO)c2sc3ccccc3c(=O)c12 [hycanthone]	0.2	9.1	0.1	5.6	2.7	101%	110%	101%	102%	84.8%	101%	96.5%	84.2%	70%	0.7%	100%	101%	96.2%	104%	85.2%	104%	101%	103%	88.5%	32.8%	90%	106%	111%	104%	44.2%	> 10 µM	1.55 µM	> 10 µM	1.87 µM	3.5 µM
CCC[C@@H]1C[C@@H](C(=O)N[C@@H]([C@H]2O[C@H](SC)[C@H](O)[C@@H](O)[C@H]2O)[C@H](C)Cl)N(C)C1 [CLINDAMYCIN HYDROCHLORIDE]	0	0	0	0	0	100%	96.7%	98.9%	102%	102%	103%	93%	104%	100%	97.6%	97.6%	102%	99.2%	105%	103%	95.3%	89.8%	93.8%	91.2%	104%	95.6%	95.7%	95.3%	108%	108%	> 10 µM	> 10 µM	> 10 µM	> 10 µM	> 10 µM
C[N+]1(C)CCCC(OC(=O)C(O)(c2ccccc2)c2ccccc2)C1 (stereo not given) [mepenzolate]	0	0	0	0	0	105%	103%	96.1%	110%	94.5%	107%	98.1%	104%	91.9%	94.3%	99.7%	101%	96.6%	101%	96.9%	94.9%	105%	97.5%	99.6%	99.8%	91.3%	87.1%	96.6%	101%	101%	> 10 µM	> 10 µM	> 10 µM	> 10 µM	> 10 µM
CN(C)Cc1c(C(=O)NCCOc2ccc(C(=O)NO)cc2)oc2ccccc12	16.1	19	17.6	13	15.6	95.3%	93.2%	73.5%	31.9%	8.2%	98.9%	92.7%	76.5%	11.4%	0.1%	96.9%	101%	82.4%	15.8%	1.3%	97.4%	96.2%	95.7%	38.2%	-0.1%	90.2%	101%	89.2%	23.6%	1.4%	0.276 µM	0.231 µM	0.292 µM	0.738 µM	0.425 µM
C[C@@H](CN1CCC(Cc2ccccc2)CC1)[C@@H](O)c1ccc(O)cc1 [Ro-25-6981]	0	0	0	0	0	97.4%	98.2%	89.1%	95.8%	107%	93.9%	100%	102%	101%	102%	99.1%	102%	96.5%	96.8%	100%	103%	102%	103%	107%	99.8%	97.1%	92.3%	86.9%	94.4%	94.3%	> 10 µM	> 10 µM	> 10 µM	> 10 µM	> 10 µM
